In article PMC4113732, “Novel Preclinical and Radiopharmaceutical Aspects of [^68Ga]Ga-PSMA-HBED-CC: A New PET Tracer for Imaging of Prostate Cancer” (Pharmaceuticals, 2014) one finds IC50 data, which are given here for 1 molecule.

This assay concerns the target T1, prostate-specific membrane antigen (PSMA) (Homo sapiens, UniProt Q04609).
T1 construct: gene FOLH1
In words: competitive radioligand binding on intact PSMA-expressing LNCaP cells against [^[…]]Ga-PSMA-HBED-CC. The format is cell-based.

T1 sequence (Q04609 whole entry): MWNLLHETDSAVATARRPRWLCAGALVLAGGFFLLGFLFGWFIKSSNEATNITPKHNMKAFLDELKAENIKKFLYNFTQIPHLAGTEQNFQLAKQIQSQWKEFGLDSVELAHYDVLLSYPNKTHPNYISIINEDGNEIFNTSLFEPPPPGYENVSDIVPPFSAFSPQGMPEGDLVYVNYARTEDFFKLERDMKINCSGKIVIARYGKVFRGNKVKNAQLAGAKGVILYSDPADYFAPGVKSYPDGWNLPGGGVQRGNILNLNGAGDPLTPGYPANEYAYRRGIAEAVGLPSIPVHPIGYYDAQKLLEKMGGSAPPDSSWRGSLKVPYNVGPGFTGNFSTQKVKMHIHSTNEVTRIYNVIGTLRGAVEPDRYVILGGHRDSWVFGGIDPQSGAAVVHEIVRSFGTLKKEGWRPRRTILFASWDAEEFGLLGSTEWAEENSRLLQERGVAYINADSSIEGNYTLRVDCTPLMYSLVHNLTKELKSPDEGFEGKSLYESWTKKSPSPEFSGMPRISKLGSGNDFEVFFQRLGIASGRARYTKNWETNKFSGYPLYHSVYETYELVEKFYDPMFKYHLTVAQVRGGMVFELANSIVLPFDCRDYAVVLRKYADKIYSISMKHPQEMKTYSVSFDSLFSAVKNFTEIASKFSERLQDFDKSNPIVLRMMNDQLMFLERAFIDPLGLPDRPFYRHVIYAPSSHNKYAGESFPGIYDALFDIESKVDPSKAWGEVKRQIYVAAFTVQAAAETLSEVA

The molecule `O=C(O)CCc1ccc2c(c1)CN1CCN(CC(=O)O)Cc3cc(CCC(=O)NCCCCCC(=O)NCCCC[C@H](NC(=O)N[C@@H](CCC(=O)O)C(=O)O)C(=O)O)ccc3[O][Ga]([O]C(=O)C1)[O]2` [[^natGa]Ga-PSMA-HBED-CC] registered an IC50 of 24.8 ± 1.2 nM.
